Experimental findings from patent US12403144B2, “HECT E3 ligase inhibitors and uses thereof” (IFOM FONDAZIONE ISTITUTO FIRC DI ONCOLOGIA MOLECOLARE, priority 2019, dated 2025) are described below.

Structures can show the parent of a compound that is named as a salt. A value given as a limit tells only on which side of the number the result lay.

This test addresses T1, untagged HECT of NEDD4 wild-type (WT) (E3 ligase) (Homo sapiens, UniProt P46934).
T1 construct: untagged HECT of NEDD4 wild-type (WT) (E3 ligase); made in house
T1 sequence (P46934 519-900 isoform P46934-4 limits assumed): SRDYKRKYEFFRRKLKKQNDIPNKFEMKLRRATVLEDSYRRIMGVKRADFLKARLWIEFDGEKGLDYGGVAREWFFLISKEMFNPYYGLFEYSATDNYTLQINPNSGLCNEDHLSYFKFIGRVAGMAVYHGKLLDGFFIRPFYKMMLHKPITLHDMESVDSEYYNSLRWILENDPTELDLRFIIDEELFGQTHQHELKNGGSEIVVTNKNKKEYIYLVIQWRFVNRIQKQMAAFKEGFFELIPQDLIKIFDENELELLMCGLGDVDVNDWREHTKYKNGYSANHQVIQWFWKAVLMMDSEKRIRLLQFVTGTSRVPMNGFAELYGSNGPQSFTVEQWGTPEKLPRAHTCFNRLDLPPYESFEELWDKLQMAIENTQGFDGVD
The test can be described thus: In vitro ubiquitination assay TR-FRET based (self-ubiquitination of NEDD4). Type of test: biochemical. As to conditions: at 11 μM; pre-incubated for 1 hour; AUC of 120 minutes kinetic; read-out: percentages of inhibition (NEDD4). The source says:
FIG. 1: TR-FRET kinetic assay performed with compound 12. […] Reactions were initiated with the addition of ATP. As labeled ubiquitin molecules become incorporated into chains they come into close proximity, resulting in energy transfer and increased signal to background detection. The activity of the enzyme is continuously and real time detected and it is expressed as % of signal/background during the time.
In order to quantitatively measure the self-ubiquitination process of the E3 HECT ligase NEDD4 the inventors employed a TR-FRET based assay. TR-FRET technology exploits the long-lasting emission of lanthanide fluorescence to interpose a short time-delay between FRET donor excitation and emission. This phenomenon enables to isolate real fluorescent signals from short-lived background emissions, thus reducing possible interference from compounds.
In the present study, elongation of the ubiqutin chain by NEDD4 is measured by adding bacterially expressed E1, His-tagged UBE2D3 (E2) and untagged HECT of NEDD4 wild-type (WT) (E3 ligase) (named in FIG. 1 as WT) enzymes to a mixture of Eu-cryptate ubiquitin, Cy5-ubiquitin and wild-type ubiquitin, combined in a ratio optimized for TR-FRET based conjugation (100×TRF-Ubiquitin Mix, SBB-TR0051). […] Bacterially expressed E1, His-tagged UBE2D3 (E2), untagged HECT NEDD4 (E3 ligase) WT and NEDD4 C/A enzymes were produced and purified as reported in E. Maspero et al. Methods Mol Biol. 1449:153-60 (2016).
Enzymatic incorporation of the labeled TRF-Ubiquitin mix into chains leads to an increase in fluorescence emission at 665 nm (emission of the acceptor Cy5-Ubiquitin, Emacceptor) and decrease at emission wavelength 620 nm (emission of the donor Eu-cryptate Ubiquitin, Emdonor).
The assay was performed in a 384-well plate format (Optiplate, Perkin Elmer, #6007290) on an automated liquid-handler (Hamilton STAR, Hamilton Robotics, Switzerland).
All compounds were dissolved in 100% DMSO and serially diluted in 96-well plates (from 100 μM to 0.005 μM).
Briefly, all reagents were thawed and kept on ice. A master mix containing E1, E2, E3 and TRF-Ubiquitin Mix (SBB-TR0051) diluted in the assay buffer (Tris-HCl pH 7.6 25 mM, NaCl 100 mM, MgCl2 5 mM and Tween 0.01%) is prepared and 50 μl/well is dispensed in a 384 well plate. 3 μl of compounds dissolved in DMSO in the above-indicated concentration range were added and pre-incubated for 1 hour. Final E1, E2 and E3 concentrations in the assay buffer (Tris-HCl pH 7.6 25 mM, NaCl 100 mM, MgCl2 5 mM and Tween 0.01%) were 30, 350 and 50 nanomolars, respectively. The reaction was initiated with the addition of ATP (22 μl of 2 mM ATP, JenaBioscience, NU-1010) and was allowed to proceed for 120 minutes, measuring fluorescence emission at 665 nm and 620 nm in real-time on an EnSpire microplate reader (Perkin Elmer).
Kinetic raw data were analyzed by Area Under the Curve (AUC) method using Prism GraphPad software.
% signal/background corresponds to the following equation: (Experimental signal−Background signal)/Background signal×100%
Experimental signal corresponds to the signal obtained by the enzymatic reaction in presence of the vehicle (DMSO) and/or the different compound concentrations. Background signal corresponds to the signal obtained by the enzymatic reaction in absence of ATP.
The relative potency of the compounds was evaluated by dose-response curves following the enzymatic reaction of HECT NEDD4 WT in real time for 120 minutes.
Percentage of inhibition is then determined by the equation: % inhibition=100×[1−(X)/(MAX)],
where MAX correspond to AUC of the vehicle (DMSO) treated enzyme, and X corresponds to the AUC of the compound treated enzyme.
As to `COC(=O)/C=C/CN(C)CCCN1c2ccccc2CCc2ccc(Cl)cc21` [Compound 1, Methyl (E)-4-[3-(3-chloro-10,11-dihydro-5H-dibenzo[b,f]azepin-5-yl)propyl-methyl-amino]but-2-enoate hydrochloride], the inhibition (in general, the share of the control response that was lost under treatment) at 11 µM fell in the range of 30 to 50%. Take `CCOC(=O)/C=C/CNCCCN1c2ccccc2COc2ccc(Cl)cc21` [Compound 2, Ethyl (E)-4-[3-(7-chlorodibenzo[b,e][1,4]oxazepin-5(11H)-yl)propylamino]but-2-enoate maleate]: the inhibition at 11 µM is > 50%. Under `CCOC(=O)/C=C/CNCCCN1c2ccccc2COc2ccc(C(F)(F)F)cc21` [Compound 3, Ethyl (E)-4-{3-[7-(trifluoromethyl)dibenzo[b,e][1,4]oxazepin-5(11H)-yl]propylamino}but-2-enoate maleate] stands 30 to 50%; under `CCOC(=O)/C=C/CNCCCN1c2ccccc2CCc2ccc(Cl)cc21` [Compound 4, Ethyl (E)-4-[3-(3-chloro-10,11-dihydro-5H-dibenzo[b,f]azepin-5-yl)propylamino]but-2-enoate fumarate], > 50%. For `CON(C)C(=O)/C=C/CN(C)CCCN1c2ccccc2CCc2ccc(Cl)cc21` [Compound 6, (E)-4-[3-(3-Chloro-10,11-dihydro-5H-dibenzo[b,f]azepin-5-yl)propyl-methyl-amino]-N-methoxy-N-methyl-but-2-enamide] the value was > 50%.

For the molecule `CC(=O)/C=C/CN(C)CCCN1c2ccccc2CCc2ccc(Cl)cc21` [Compound 7, (E)-5-[3-(3-chloro-10,11-dihydro-5H-dibenzo[b,f]azepin-5-yl)propyl-methyl-amino]pent-3-en-2-one maleate], the inhibition at 11 µM was > 50%. For `CN(C/C=C/C(=O)c1ccccc1)CCCN1c2ccccc2CCc2ccc(Cl)cc21` [Compound 8, (E)-4-[3-(3-chloro-10,11-dihydro-5H-dibenzo[b,f]azepin-5-yl)propyl-methyl-amino]-1-phenyl-but-2-en-1-one] the value was > 50%. As for `CC(=O)/C=C/CN(C)CCCCN1c2ccccc2CCc2ccc(Cl)cc21` [Compound 10, (E)-5-[4-(3-chloro-10,11-dihydro-5H-dibenzo[b,f]azepin-5-yl)butyl-methyl-amino]pent-3-en-2-one maleate], the inhibition at 11 µM is > 50%.

Turning to `CCOC(=O)/C=C/CNCCCN1c2ccccc2CCc2ccccc21` [Compound 11, Ethyl (E)-4-[3-(10,11-dihydro-5H-dibenzo[b,f]azepin-5-yl)propylamino]but-2-enoate fumarate], the inhibition at 11 µM was in the range of 30 to 50%. Consider `CCOC(=O)/C=C/CNCCCCCN1c2ccccc2CCc2ccc(Cl)cc21` [Compound 13, Ethyl (E)-4-[5-(3-chloro-10,11-dihydro-5H-dibenzo[b,f]azepin-5-yl)pentylamino]but-2-enoate maleate], for which the inhibition at 11 µM is > 50%. Consider `CCOC(=O)/C=C/CNCCCN1c2ccccc2CCc2ccc([N+](=O)[O-])cc21` [Compound 14, Ethyl (E)-4-[3-(3-nitro-10,11-dihydro-5H-dibenzo[b,f]azepin-5-yl)propylamino]but-2-enoate maleate], for which the inhibition at 11 µM was > 50%. For `CCOC(=O)/C=C/CNCCCN1c2ccccc2CCc2ccc(Br)cc21` [Compound 15, Ethyl (E)-4-[3-(3-bromo-10,11-dihydro-5H-dibenzo[b,f]azepin-5-yl)propylamino]but-2-enoate maleate] the value was > 50%. Under `O=C(O)/C=C/CNCCCN1c2ccccc2CCc2ccc(Cl)cc21` [Compound 16, (E)-4-[3-(3-chloro-10,11-dihydro-5H-dibenzo[b,f]azepin-5-yl)propylamino]but-2-enoic acid 2,2,2-trifluoroacetate] stands < 30%; under `O=C(O)/C=C/CNCCCCN1c2ccccc2CCc2ccc(Cl)cc21` [Compound 17, (E)-4-[4-(3-chloro-10,11-dihydro-5H-dibenzo[b,f]azepin-5-yl)butylamino]but-2-enoic acid 2,2,2-trifluoroacetate], < 30%. Under `NC(=O)/C=C/CNCCCN1c2ccccc2CCc2ccc(Cl)cc21` [Compound 18, (E)-4-{[3-(3-chloro-10,11-dihydro-5H-dibenzo[b,f]azepin-5-yl)propyl]amino}but-2-enamide hydrochloride] stands < 30%; under `CNC(=O)/C=C/CNCCCN1c2ccccc2CCc2ccc(Cl)cc21` [Compound 19, (E)-4-{[3-(3-chloro-10,11-dihydro-5H-dibenzo[b,f]azepin-5-yl)propyl]amino}-N-methyl-but-2-enamide hydrochloride], < 30%; under `CN(C)C(=O)/C=C/CNCCCN1c2ccccc2CCc2ccc(Cl)cc21` [Compound 20, (E)-4-{[3-(3-chloro-10,11-dihydro-5H-dibenzo[b,f]azepin-5-yl)propyl]amino}-N,N-dimethyl-but-2-enamide hydrochloride], < 30%. As to `O=C(/C=C/CNCCCN1c2ccccc2CCc2ccc(Cl)cc21)Nc1ccccc1` [Compound 21, (E)-4-{[3-(3-chloro-10,11-dihydro-5H-dibenzo[b,f]azepin-5-yl)propyl]amino}-N-phenyl-but-2-enamide hydrochloride], the inhibition at 11 µM was < 30%.

For the molecule `N#C/C=C/CNCCCN1c2ccccc2CCc2ccc(Cl)cc21` [Compound 22, (E)-4-{[3-(3-chloro-10,11-dihydro-5H-dibenzo[b,f]azepin-5-yl)propyl]amino}but-2-enenitrile hydrochloride], the inhibition at 11 µM is > 50%. `CCOC(=O)/C=C/CNCCCN1c2ccccc2NC(=O)c2ccc(Cl)cc21` [Compound 23, Ethyl (E)-4-{[3-(3-chloro-11-oxo-10,11-dihydro-5H-dibenzo[b,e][1,4]diazepin-5-yl)propyl]amino}but-2-enoate maleate]: the inhibition at 11 µM is 30 to 50%. Take `CCOC(=O)/C=C/CNCCCCN1c2ccccc2NC(=O)c2ccc(Cl)cc21` [Compound 24, Ethyl (E)-4-{[4-(3-chloro-11-oxo-10,11-dihydro-5H-dibenzo[b,e][1,4]diazepin-5-yl)butyl]amino}but-2-enoate maleate]: the inhibition at 11 µM was > 50%. Consider `CCOC(=O)/C=C/CNCCCN1c2ccccc2NC(=O)c2ccc(C(F)(F)F)cc21` [Compound 25, Ethyl (E)-4-{[3-(11-oxo-3-(trifluoromethyl)-10,11-dihydro-5H-dibenzo[b,e][1,4]diazepin-5-yl)propyl]amino}but-2-enoate maleate], for which the inhibition at 11 µM was < 30%.

Take `CCOC(=O)/C=C/CNCCCN1c2cc(Cl)ccc2NC(=O)c2ccccc21` [Compound 26, Ethyl (E)-4-{[3-(7-chloro-11-oxo-10,11-dihydro-5H-dibenzo[b,e][1,4]diazepin-5-yl)propyl]amino}but-2-enoate maleate]: the inhibition at 11 µM was > 50%.
